Results published in PubChem BioAssay AID624285 (Broad Institute, 2012).
Activity calls are given as the source filed them.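 The calls were made as follows: active = signal-decreasing dose-response curve whose fitted half-maximal concentration is at or below twice the highest valid tested dose; inconclusive = flat fit at 30 to 70% signal loss, or poor fit; inactive = the rest.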

test system: NIH3T3/HeLa viability, CellTiter-Glo ATP luminescence, 24 h; experiment: cell viability loss after compound exposure – 24 h, luminescence, cherry-picked samples, cytotoxicity control for PDI inhibitor project, dose response (AID 624285)

Compound	AC50
C[C@H]1CN([C@@H](C)CO)C(=O)Cc2cc(NC(=O)Nc3ccccc3)ccc2O[C@@H]1CN(C)Cc1ccccc1	37.9 µM
COc1ccc(C2c3ccc(O)cc3Oc3ncn(CCN4CCOCC4)c(=N)c32)cc1OC (stereo unspecified)	> 70 µM (inactive)
CN1CCN(Cc2nc3ccccc3c(=O)n2Cc2nc(-c3ccc4ccccc4c3)cs2)CC1	7.27 µM
C[C@@H]1CN([C@H](C)CO)C(=O)c2cccc(NS(C)(=O)=O)c2O[C@H]1CN(C)Cc1ccc(Oc2ccccc2)cc1	> 70 µM (inactive)
O=C(Nc1ccc(Br)cc1F)c1cccnc1	> 70 µM (inactive)
Nc1ccc(C(=O)NN2C(=O)[C@H](Cl)C2c2ccc(Cl)cc2)cc1 (stereo partly specified)	6.04 µM
COc1ccc(OCCN2CCC(C(=O)NC(c3ccsc3)c3ccccc3C)CC2)cc1 (stereo unspecified)	> 70 µM (inactive)
COc1ccc(C(=O)c2c(C)c3cc(C)ccc3n2CC(O)CN2CCOCC2)cc1 (stereo unspecified)	> 70 µM (inactive)
CN1CCN(CCOC2c3ccccc3CSc3ccc(Cl)cc32)CC1 (stereo unspecified)	30.5 µM
COc1ccc(/C=C/C(=O)c2cc(F)ccc2OC(=O)c2ccccc2OC)cc1OC	23.5 µM
O=C(c1ccc(S(=O)(=O)N2CCCCC2)cc1)N1CCN(Cc2ccc3c(c2)OCO3)CC1	> 70 µM (inactive)
COc1ccc(C[C@@H]2OC3(C=CC(=O)C=C3)O[C@H]2Cc2ccc(OC)cc2)cc1	1.69 µM
O=C(CCC1CCCCC1)NCCN1C2=NC[C@H](Cc3ccc(O)cc3)N2C[C@H]1Cc1ccc(O)cc1	> 70 µM (inactive)
O=S(=O)(Nc1ccc(C(O)(C(F)(F)F)C(F)(F)F)cc1)c1ccc(Cl)c2nonc12	9.47 µM
COC(=O)c1ccc(NC(=S)NCCc2cccc(C)c2)cc1	> 70 µM (inactive)
CC12CCC3c4ccc(O)cc4CCC3C1CCC2=O (stereo unspecified)	> 70 µM (inactive)
CC[C@]12c3[nH]c4cc(-c5ccco5)ccc4c3CCN1C(=O)[C@@H](CC(=O)NCc1ccc(OC)c(OC)c1)C[C@@H]2C(=O)N1CCN(C(=O)c2ccco2)CC1	> 70 µM (inactive)
C[C@H]1CN([C@@H](C)CO)C(=O)c2cc(NC(=O)Cc3cn(C)c4ccccc34)ccc2O[C@@H]1CN(C)S(=O)(=O)c1ccc(F)cc1	> 70 µM (inactive)
CCOC(=O)c1c(CN(C)C)n(-c2ccc(C)cc2)c2cc(Br)c(O)cc12	> 70 µM (inactive)
C[C@@H]1CN([C@@H](C)CO)C(=O)Cc2cc(NC(=O)Nc3ccccc3)ccc2O[C@@H]1CN(C)Cc1ccccc1	> 60 µM (inactive)
CCOC(=O)c1c(CN2CCN(C)CC2)n(-c2ccccc2)c2cc(Br)c(O)cc12	23.9 µM
O=C(/C=C/c1ccc(N2CCCCC2)c([N+](=O)[O-])c1)c1ccc(O)cc1	12 µM
O=C1N[C@@H](Cc2c[nH]c3ccccc23)COC(=O)[C@@H](Cc2ccc(F)cc2)C/C=C\C[C@H]1CC(=O)N(CCO)Cc1ccccc1	30.2 µM
NC(Cc1ccc(C(F)(F)F)cc1)c1csc(Nc2ccc(C(=O)NCCCO)cn2)n1 (stereo unspecified)	35.1 µM
CCc1cc(OCCCCNCc2ccccc2)ccc1Cl	21.5 µM
Cc1[nH][nH]c(=O)c1C(c1c(C)[nH][nH]c1=O)c1cn(Cc2ccccc2Cl)c2ccccc12	> 70 µM (inactive)
